# Reference: patent US10793591B2, “Substituted nucleosides, nucleotides and analogs thereof” (priority 2012, dated 2020)
# Target: human mitochondrial RNA polymerase (Homo sapiens (Human), UniProt O00411)
# Assay: DdRp assay: incorporation of nucleotides by human mitochondrial RNA polymerase (HMRP)
# Conditions: 100 μM NTP, single turnover, product band on gel
# Sequence of human mitochondrial RNA polymerase (O00411 42-1230): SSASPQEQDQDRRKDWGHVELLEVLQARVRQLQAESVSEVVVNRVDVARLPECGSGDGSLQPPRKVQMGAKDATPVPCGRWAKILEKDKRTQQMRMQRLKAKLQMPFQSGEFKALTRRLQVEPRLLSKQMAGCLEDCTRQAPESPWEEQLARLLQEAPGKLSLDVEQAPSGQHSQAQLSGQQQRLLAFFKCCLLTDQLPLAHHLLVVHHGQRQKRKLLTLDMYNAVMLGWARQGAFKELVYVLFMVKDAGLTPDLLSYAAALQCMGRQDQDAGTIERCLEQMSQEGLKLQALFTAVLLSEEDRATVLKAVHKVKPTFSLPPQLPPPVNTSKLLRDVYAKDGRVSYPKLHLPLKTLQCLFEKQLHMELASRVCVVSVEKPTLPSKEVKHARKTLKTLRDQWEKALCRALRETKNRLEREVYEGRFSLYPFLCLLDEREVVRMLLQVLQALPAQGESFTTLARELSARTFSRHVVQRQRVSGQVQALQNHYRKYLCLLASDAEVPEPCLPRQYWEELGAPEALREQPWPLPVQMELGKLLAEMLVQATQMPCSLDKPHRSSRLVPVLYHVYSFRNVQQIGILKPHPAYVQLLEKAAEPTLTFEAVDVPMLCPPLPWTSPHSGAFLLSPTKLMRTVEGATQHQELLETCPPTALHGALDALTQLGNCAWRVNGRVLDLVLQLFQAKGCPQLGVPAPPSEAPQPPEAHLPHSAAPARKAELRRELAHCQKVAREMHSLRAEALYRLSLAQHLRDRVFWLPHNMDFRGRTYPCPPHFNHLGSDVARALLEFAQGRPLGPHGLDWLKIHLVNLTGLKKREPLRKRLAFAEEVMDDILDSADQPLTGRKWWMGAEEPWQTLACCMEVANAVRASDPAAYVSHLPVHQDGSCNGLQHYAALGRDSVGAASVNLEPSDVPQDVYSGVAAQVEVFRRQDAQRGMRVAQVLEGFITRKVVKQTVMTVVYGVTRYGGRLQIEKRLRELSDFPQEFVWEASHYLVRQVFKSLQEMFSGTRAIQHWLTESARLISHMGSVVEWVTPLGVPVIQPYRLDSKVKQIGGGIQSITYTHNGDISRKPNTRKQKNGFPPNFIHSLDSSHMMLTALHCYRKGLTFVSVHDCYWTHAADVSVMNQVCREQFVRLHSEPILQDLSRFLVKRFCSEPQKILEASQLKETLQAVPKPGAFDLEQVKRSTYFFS
Structure (SMILES),"incorporation by HMRP (template for GTP analogs, FIG. 11)","incorporation by HMRP (template for UTP analogs, FIG. 10)"
Nc1ncnc2c1ncn2[C@@H]1O[C@H](COP(=O)(O)OP(=O)(O)OP(=O)(O)O)[C@@H](O)[C@H]1O [ATP],poor substrate for incorporation,
C[C@@]1(F)[C@H](O)[C@@H](COP(=O)(O)OP(=O)(O)OP(=O)(O)O)O[C@H]1n1ccc(=O)[nH]c1=O [2′-Me-2′-F-UTP],,not efficient substrates for incorporation by HMRP

# System: HCV genotype 1b HCV replicon harbored in Huh7 cells
# Assay: Combination testing in HCV replicon (MacSynergy II)
# Format: cell-based
# Conditions: combination with compound 18, 72 h, MacSynergy II, Bliss independence model
row,Structure (SMILES),Synergy Volume
1,CNC(=O)c1c(-c2ccc(F)cc2)oc2cc(N(CCO)S(C)(=O)=O)c(C3CC3)cc12 [HCV-796 (3004)],81.72 μM^2%
2,"NC(=O)c1ncn([C@@H]2O[C@H](CO)[C@@H](O)[C@H]2O)n1 [Ribavirin (5012), Ribavirin]",6.77 μM^2%
3,CCc1cc(CC[C@]2(C3CCCC3)CC(O)=C(Cc3nc4nc(C)cc(C)n4n3)C(=O)O2)cc(CC)n1 [Filibuvir (3007)],23.51 μM^2%
4,CCC[C@H](NC(=O)[C@@H]1[C@H]2CCC[C@H]2CN1C(=O)[C@@H](NC(=O)[C@@H](NC(=O)c1cnccn1)C1CCCCC1)C(C)(C)C)C(=O)C(=O)NC1CC1 [VX-950 (1001)],32.28 μM^2%
5,COc1ccc2c(O[C@@H]3C[C@H]4C(=O)N[C@]5(C(=O)NS(=O)(=O)C6CC6)C[C@H]5/C=C\CCCCN(C)C(=O)[C@@H]4C3)cc(-c3nc(C(C)C)cs3)nc2c1C [TMC-435 (1013)],97.17 μM^2%
6,COC(=O)N[C@H](C(=O)N1CCC[C@H]1c1nc(-c2ccc(-c3ccc(-c4c[nH]c([C@@H]5CCCN5C(=O)[C@@H](NC(=O)OC)C(C)C)n4)cc3)cc2)c[nH]1)C(C)C [BMS-790052 (4001)],38.01 μM^2%
7,CC(C)(C)C#Cc1cc(N(C(=O)[C@H]2CC[C@H](C)CC2)[C@H]2CC[C@H](O)CC2)c(C(=O)O)s1 [VX-222 (3003)],32.35 μM^2%

# Same assay, conditions: combination with compound 18, class from synergy volume
row,Structure (SMILES),Determination
1,CNC(=O)c1c(-c2ccc(F)cc2)oc2cc(N(CCO)S(C)(=O)=O)c(C3CC3)cc12 [HCV-796 (3004)],Synergistic (volumes in the 25-100 range indicate synergistic behavior)
2,"NC(=O)c1ncn([C@@H]2O[C@H](CO)[C@@H](O)[C@H]2O)n1 [Ribavirin (5012), Ribavirin]",Additive (volumes in the −25-25 range indicate additive behavior)
3,CCc1cc(CC[C@]2(C3CCCC3)CC(O)=C(Cc3nc4nc(C)cc(C)n4n3)C(=O)O2)cc(CC)n1 [Filibuvir (3007)],Additive (volumes in the −25-25 range indicate additive behavior)
4,CCC[C@H](NC(=O)[C@@H]1[C@H]2CCC[C@H]2CN1C(=O)[C@@H](NC(=O)[C@@H](NC(=O)c1cnccn1)C1CCCCC1)C(C)(C)C)C(=O)C(=O)NC1CC1 [VX-950 (1001)],Synergistic (volumes in the 25-100 range indicate synergistic behavior)
5,COc1ccc2c(O[C@@H]3C[C@H]4C(=O)N[C@]5(C(=O)NS(=O)(=O)C6CC6)C[C@H]5/C=C\CCCCN(C)C(=O)[C@@H]4C3)cc(-c3nc(C(C)C)cs3)nc2c1C [TMC-435 (1013)],Synergistic (volumes in the 25-100 range indicate synergistic behavior)
6,COC(=O)N[C@H](C(=O)N1CCC[C@H]1c1nc(-c2ccc(-c3ccc(-c4c[nH]c([C@@H]5CCCN5C(=O)[C@@H](NC(=O)OC)C(C)C)n4)cc3)cc2)c[nH]1)C(C)C [BMS-790052 (4001)],Synergistic (volumes in the 25-100 range indicate synergistic behavior)
7,CC(C)(C)C#Cc1cc(N(C(=O)[C@H]2CC[C@H](C)CC2)[C@H]2CC[C@H](O)CC2)c(C(=O)O)s1 [VX-222 (3003)],Synergistic (volumes in the 25-100 range indicate synergistic behavior)

# System: Huh-7 cells containing the self-replicating, subgenomic HCV replicon
# Assay: HCV replicon assay (luciferase reporter)
# Format: cell-based
# Conditions: Hepatitis C virus, Huh-7, 72 h
row,Structure (SMILES),EC50
1,CCOc1nc(N)nc2c1ncn2[C@@H]1O[C@]2(F)COP(=O)(OC(C)C)O[C@H]2[C@@]1(C)F (stereo partly drawn) [Compound 81],< 1000 nM
2,CC(C)OC(=O)C(C)N[P@](=O)(OC[C@@]1(F)O[C@@H](n2ccc(=O)[nH]c2=O)[C@](C)(O)[C@@H]1O)Oc1ccccc1 (stereo partly drawn) [Compound 18],< 1000 nM
3,CC(C)OC(=O)[C@H](C)NP(=O)(OC[C@@]1(F)O[C@@H](n2ccc(=O)[nH]c2=O)[C@](C)(Cl)[C@@H]1O)Oc1ccccc1 (stereo partly drawn) [Compound 62],< 1000 nM
4,CC(C)OC(=O)[C@H](C)NP(=O)(OC[C@@]1(F)O[C@@H](n2ccc(=O)[nH]c2=O)[C@](C)(O)[C@@H]1O)Oc1cccc2ccccc12 (stereo partly drawn) [Compound 54],< 1000 nM
5,CC(C)OC(=O)[C@H](C)NP(=O)(OC[C@@]1(F)O[C@@H](n2ccc(=O)[nH]c2=O)[C@](C)(O)[C@@H]1O)Oc1ccc(Cl)cc1 (stereo partly drawn) [Compound 56],< 1000 nM
6,C=C=C[C@]1(O)[C@H](n2ccc(=O)[nH]c2=O)O[C@](F)(CO[P@@](=O)(N[C@@H](C)C(=O)OC(C)C)Oc2ccccc2)[C@H]1O [Compound 73],1000 to 10000 nM
7,CCOC(=O)[C@H](C)NP(=O)(N[C@@H](C)C(=O)OCC)OC[C@@]1(F)O[C@@H](n2ccc(=O)[nH]c2=O)[C@](C)(O)[C@@H]1O [Compound 67],1000 to 10000 nM
8,C=C[C@]1(O)[C@H](n2ccc(=O)[nH]c2=O)O[C@](F)(COP(=O)(N[C@@H](C)C(=O)OC(C)C)Oc2ccccc2)[C@H]1O (stereo partly drawn) [Compound 77],1000 to 10000 nM
9,C[C@H](NP(=O)(OC[C@@]1(F)O[C@@H](n2ccc(=O)[nH]c2=O)[C@](C)(O)[C@@H]1O)Oc1ccccc1)C(=O)OC1CCCCC1 (stereo partly drawn) [Compound 3],< 1000 nM
10,CC(C)(C)C(=O)SCCCCOP(=O)(OCCCCSC(=O)C(C)(C)C)OC[C@@]1(F)O[C@@H](n2ccc(=O)[nH]c2=O)[C@](C)(O)[C@@H]1O [Compound 60],10000 to 100000 nM
11,CCOc1nc(N)nc2c1ncn2[C@@H]1O[C@](F)(COP(=O)(N[C@@H](C)C(=O)OC2CCCCC2)Oc2ccccc2)[C@@H](O)[C@@]1(C)F (stereo partly drawn) [Compound 66],< 1000 nM
12,CC(C)OC(=O)[C@H](C)NP(=O)(N[C@@H](C)C(=O)OC(C)C)OC[C@@]1(F)O[C@@H](n2ccc(=O)[nH]c2=O)[C@](C)(O)[C@@H]1O [Compound 70],1000 to 10000 nM
13,C[C@H](NP(=O)(OC[C@@]1(F)O[C@@H](n2cnc3c(=O)[nH]c(N)nc32)[C@](C)(O)[C@@H]1O)Oc1ccccc1)C(=O)OC1CCCCC1 (stereo partly drawn) [Compound 11],< 1000 nM
14,CCOc1nc(N)nc2c1ncn2C1O[C@](F)(COP(=O)(N[C@@H](C)C(=O)OC(C)C)Oc2ccccc2)[C@@H](O)[C@@]1(C)F (stereo partly drawn) [Compound 85],< 1000 nM
15,CCOc1nc(N)nc2c1ncn2[C@@H]1O[C@](F)(COP(=O)(N[C@@H](C)C(=O)OCC(C)(C)C)Oc2ccccc2)[C@@H](O)[C@@]1(C)O (stereo partly drawn) [Compound 17],< 1000 nM
16,CC(N[P@](=O)(OC[C@@]1(F)O[C@@H](n2ccc(=O)[nH]c2=O)[C@](C)(O)[C@@H]1O)Oc1ccccc1)C(=O)OC1CCCCC1 (stereo partly drawn) [Compound 20],< 1000 nM

row,Structure (SMILES),EC50
1,C#C[C@]1(O)[C@H](n2ccc(=O)[nH]c2=O)O[C@](F)(COP(=O)(N[C@@H](C)C(=O)OC2CCCCC2)Oc2ccccc2)[C@H]1O (stereo partly drawn) [Compound 22],< 1000 nM
2,CC(=O)O[C@H]1[C@@](C)(O)[C@H](n2ccc(=O)[nH]c2=O)O[C@]1(F)COP(=O)(N[C@@H](C)C(=O)OC(C)C)Oc1ccc(Cl)cc1 (stereo partly drawn) [Compound 57],< 1000 nM
3,CCOc1nc(N)nc2c1ncn2C1O[C@](F)(COP(=O)(N[C@@H](C)C(=O)OCC(C)C)Oc2ccccc2)[C@@H](O)[C@@]1(C)F (stereo partly drawn) [Compound 86],< 1000 nM
4,CCOc1nc(N)nc2c1ncn2[C@@H]1O[C@](F)(COP(=O)(N[C@@H](C)C(=O)OC2CCCC2)Oc2ccccc2)[C@@H](O)[C@@]1(C)F (stereo partly drawn) [Compound 87],< 1000 nM
5,CCOc1nc(N)nc2c1ncn2[C@@H]1O[C@]2(F)COP(=O)(OCC)O[C@H]2[C@@]1(C)F (stereo partly drawn) [Compound 79],< 1000 nM
6,CCOc1nc(N)nc2c1ncn2[C@@H]1O[C@](F)(COP(=O)(N[C@@H](C)C(=O)OCC(C)(C)C)Oc2cccc3ccccc23)[C@@H](O)[C@@]1(C)F (stereo partly drawn) [Compound 90],< 1000 nM
7,CCOc1nc(N)nc2c1ncn2[C@@H]1O[C@]2(F)COP(=O)(OCC(C)C)O[C@H]2[C@@]1(C)F (stereo partly drawn) [Compound 80],1000 to 10000 nM
8,CC(N[P@@](=O)(OC[C@@]1(F)O[C@@H](n2ccc(=O)[nH]c2=O)[C@](C)(O)[C@@H]1O)Oc1ccccc1)C(=O)OC1CCCCC1 (stereo partly drawn) [Compound 21],< 1000 nM
9,CCOc1nc(N)nc2c1ncn2[C@@H]1O[C@](F)(COP(=O)(N[C@@H](C)C(=O)OC2CCCCC2)Oc2ccccc2)[C@@H](O)[C@@]1(C)O (stereo partly drawn) [Compound 16],< 1000 nM
10,CC(C)OC(=O)C(C)N[P@@](=O)(OC[C@@]1(F)O[C@@H](n2ccc(=O)[nH]c2=O)[C@](C)(O)[C@@H]1O)Oc1ccccc1 (stereo partly drawn) [Compound 19],< 1000 nM
11,CCOc1nc(N)nc2c1ncn2[C@@H]1O[C@](F)(COP(=O)(N[C@@H](C)C(=O)OCC(C)(C)C)Oc2ccccc2)[C@@H](O)[C@@]1(C)F (stereo partly drawn) [Compound 91],< 1000 nM
12,CCOc1nc(N)nc2c1ncn2C1O[C@](F)(COP(=O)(N[C@@H](C)C(=O)OC(C)C)Oc2cccc3ccccc23)[C@@H](O)[C@@]1(C)F (stereo partly drawn) [Compound 83],< 1000 nM
13,CCOc1nc(N)nc2c1ncn2[C@@H]1O[C@](F)(COP(=O)(N[C@@H](C)C(=O)OC(CC)CC)Oc2ccccc2)[C@@H](O)[C@@]1(C)F (stereo partly drawn) [Compound 88],< 1000 nM
14,CC(C)OC(=O)[C@H](C)NP(=O)(OC[C@@]1(F)O[C@@H](n2ccc(=O)[nH]c2=O)[C@](C)(O)[C@@H]1O)Oc1ccccc1 (stereo partly drawn) [Compound 2],< 1000 nM
15,CCOc1nc(N)nc2c1ncn2[C@@H]1O[C@](F)(COP(=O)(N[C@@H](C)C(=O)OCC(C)(C)C)Oc2cccc3ncccc23)[C@@H](O)[C@@]1(C)F (stereo partly drawn) [Compound 89],< 1000 nM

# Same assay, conditions: Hepatitis C virus, Huh-7; HCV replicon cells, 72 h, Bright-Glo luciferase; read-out: EC50
row,Structure (SMILES),EC50
1,CC(C)OC(=O)OCOP(=O)(OCOC(=O)OC(C)C)OC[C@@]1(F)O[C@@H](n2ccc(=O)[nH]c2=O)[C@](C)(F)[C@@H]1O [Compound 61],< 1000 nM
2,CCOc1nc(N)nc2c1ncn2[C@@H]1O[C@]2(F)CO[P@](=O)(OC(C)C)O[C@H]2[C@@]1(C)F [Compound 42],< 1000 nM

# Same assay, conditions: read-out: EC50
row,Structure (SMILES),EC50
1,C#C[C@]1(O)[C@H](n2cnc3c(OCC)nc(N)nc32)O[C@](F)(CO[P@](=O)(N[C@@H](C)C(=O)OC2CCCCC2)Oc2ccccc2)[C@H]1O [Compound 34],< 1000 nM
2,C#C[C@]1(O)[C@H](n2cnc3c(OCC)nc(N)nc32)O[C@](F)(CO[P@@](=O)(N[C@@H](C)C(=O)OC2CCCCC2)Oc2ccccc2)[C@H]1O [Compound 35],< 1000 nM

# System: mitochondrial protein synthesis (COX-I relative to SDH-A) in HepG2 cells
# Assay: not given
# Conditions: not given
row,Structure (SMILES),inhibition of mitochondrial protein synthesis
1,Cc1cn([C@H]2C=C[C@@H](CO)O2)c(=O)[nH]c1=O [d4T],not to inhibit mitochondrial protein synthesis at concentrations up to 100 μM
2,Nc1ccn([C@H]2CC[C@@H](CO)O2)c(=O)n1 [ddC],strongly inhibit mitochondrial protein synthesis
3,COc1nc(N)nc2c1ncn2[C@@H]1O[C@H](COP(=O)(N[C@@H](C)C(=O)OCC(C)(C)C)Oc2cccc3ccccc23)[C@@H](O)[C@@]1(C)O (stereo partly drawn) [INX-08189/BMS-986094],strongly inhibit mitochondrial protein synthesis
